Measured values published in patent US6897228B2, “Pyridoxine and pyridoxal analogues: new uses” (Medicure International Inc., priority 2000, dated 2005).
Marks after values point to notes of the source that are not given here.

Tested on: Male Wistar rats, embolic focal cerebral ischemia (MCA)
Assay: Neuroprotection in rat embolic stroke model
Assay type: in vivo
Settings: for infarction volume: 48 h, mean±SEM; for Hemorrhage rate / Mortality rate (pre-mature death) / Seizure occurrence: n=10; for Neurological deficits (modified Bederson score): median (25-75th percentile)
From the text: Male Wistar rats, weighting 300-350 g, were purchased from Charles River, St. Constant, Canada. Embolic focal cerebral ischemia was induced by embolizing a preformed clot into the middle cerebral artery (MCA). (For details of the procedure see Wang C X, Yang Y, Shuaib A. A focal embolic model of cerebral ischemia in rats. Brain Res. Protoc. 7:115-120, 2001. Wang C, Yang T and Shuaib A: An improved version of embolic model of brain ischemic injury in the rat. J. Neurosci. Meth. 109:147-151, 2001).
The study consisted of four groups (n=10). Animals were randomly assigned to one of the four groups. Treatments were started at 1 h after MCA occlusion. […] In the control group, 0.5% DMSO (1.5 ml) was infused.
The procedure for assessment of infarct volume were detailed previously (Bederson J B, Pitts L H, Tsuji M, Nishimura M C, Davis R L, Bartkowski H. Rat middle cerebral artery occlusion: evaluation of the model and development of a neurologic examination. Stroke 17:472-476, 1986. Yang, Y., Shuaib, A., and Li, Q. Quantification of infarct size on focal cerebral ischemia model of rats using a simple and economical method. J. Neurosci. Meth., 84:9-16, 1998). Briefly, at 48 h after ischemia the anesthetized animal was sacrificed by decapitation and the brain removed. The volume of infarction was measured in the brain sections stained with 2,3,5-triphenyltetrazolium chloride (TTC) solution with following formula, corrected infarct size=the volume of the left hemisphere−(the volume of the right hemisphere-measured infarct volume). The percentage of infarct volume was obtained by calculating the portion of the corrected infarct volume and dividing it by the total volume of the left hemisphere. Brain swelling was determined using a formula: swelling (edema)=(volume of the right hemisphere[…])/volume of the left hemisphere. Hemorrhage transformation was identified from the TTC stain brain sections.
Neurological deficits and seizure activities were recorded at 2, 24 and 48 hours after embolization. Neurological deficits were determined using a modified Bederson's scoring system (Bederson J B, Pitts L H, Tsuji M, Nishimura M C, Davis R L, Bartkowski H. Rat middle cerebral artery occlusion: evaluation of the model and development of a neurologic examination. Stroke (17:472-476, 1986). 0: no observable deficit; 1: forelimb flexion; 2: forelimb flexion plus decreased resistance to lateral push; 3: unidirectional circling; 4: unidirectional circling plus decreased level of consciousness. Seizure activity, hemorrhage and mortality were also recorded. […]. Results are shown in Table 25-1
The differences of infarction volume were analyzed with one way ANOVA followed by Dunnett's test. Neurological deficit scores were reported as medians and interquartile ranges, considering 25-75th percentile. The neurological scores were analyzed with Kruskal-Wallis test when more than two groups, and analyzed with Mann-Whitney test when comparison was done in two groups. The rates of mortality and seizure occurrence following different treatments were compared with Chi-square test. Differences were considered significant when p<0.05.

In the case of `Cc1ncc(CNc2ccc(-c3ccc(C(=N)N)cc3)cc2)c(CO)c1O` [Compound XL], the infarction volume (10 mg/kg at 1 h after embolization, control 40±2.6%) is reported as 30.5±4.8%, the Hemorrhage rate (10 mg/kg group, control 1 rat) is reported as 2 rats and the “Mortality rate (pre-mature death)” value (10 mg/kg group, control 1 rat) is reported as 1. The Seizure occurrence (10 mg/kg group, control 2 rats) was 3 rats, the Ischemic brain edema (10 mg/kg, control 5.7±1.3) was 6.8±1.9 and the “Neurological deficits (modified Bederson score)” value (“Neurological deficits” for short) (10 mg, 2 h after injury) was 3 (3-3). The “Neurological deficits” value (10 mg, 24 h after injury) was 2 (2-3)*, the “Neurological deficits” value (10 mg, 48 h after injury) was 2 (2-3)* and the Ischemic brain edema (20 mg/kg) was 5.9±1.3. For the same compound, the infarction volume (20 mg/kg at 1 h after embolization) was 26.5±4.4%, the Hemorrhage rate (20 mg/kg group) was 1 rat and the “Mortality rate (pre-mature death)” value (20 mg/kg group) was 1. The Seizure occurrence (20 mg/kg group) was 2 rats, the “Neurological deficits” value (20 mg, 2 h after injury) was 3 (3-3) and the “Neurological deficits” value (20 mg, 24 h after injury) was 2 (2-3)*. For the same compound, the “Neurological deficits” value (20 mg, 48 h after injury) was 2 (2-3)*, the Ischemic brain edema (40 mg/kg) was 7.9±2.1 and the infarction volume (40 mg/kg at 1 h after embolization) was 25.9±3.4%. The Hemorrhage rate (40 mg/kg group) was 2 rats, the Seizure occurrence (40 mg/kg group) was 2 rats and the “Neurological deficits” value (40 mg, 2 h after injury) was 3 (3-3). For the same compound, the “Neurological deficits” value (40 mg, 24 h after injury) was 2 (2-3)* and the “Neurological deficits” value (40 mg, 48 h after injury) was 2.5 (2-2)*.
